# Reference: patent publication US8686016B2, “Schweinfurthins and uses thereof” (The United States of America, as represented by the …, priority 2009, dated 2014)
# Entries after “also recorded” stand apart in the source; their conditions may differ.
# Columns and labels:
# [1] = system: MPNST T265 cells; test: XTT cell proliferation assay, T265; format: cell-based, human
# Protocol: (§1) XTT Cell Proliferation Assay: Cells were seeded into 96-well plates at a density of 2,000 cells/well and allowed to reattach overnight. Cells were treated with SA, synthetic analogs, camptothecin (NCI Chemotherapeutics Repository, Md., USA), or DMSO control at the indicated concentrations continuously for 48 hours followed by assay in the 96-well plate for relative viable cell number using the dye […] (XTT) and a Wallac-Victor 2 plate reader (Perkin-Elmer, Waltham, Mass., USA). Absorbance was determined at 450 nm with 650 nm as a reference reading. Primary astrocytes were additionally assayed at a 96 hour time point.
# (§2) Cell lines and culture: Human MPNST cell lines (STS26T and T265) were obtained from the Pediatric Oncology Branch, NCI (Bethesda, Md., USA).
# [2] = system: sporadic MPNST STS26T cells; test: XTT cell proliferation assay, STS26T; format: cell-based, human
# Protocol: as §1, §2
# [3] = system: primary astrocytes; test: Cell morphology / actin confocal microscopy, primary astrocytes; format: cell-based, mouse; settings: 18 hours treatment
# Protocol: (§3) Cell Morphology Assays and Confocal Microscopy: To assay cytoskeleton morphology, KR158 cells, mouse primary astrocytes, KR158 clones expressing the NF1-GRD constructs, K14553 cells, and A549 were seeded to cover slips and allowed to reattach overnight. Cells were treated for 18 hours with either the indicated concentrations of SA, or the vehicle control DMSO. The cover slips were fixed in 3.7% paraformaldehyde, permeablized in 0.1% Triton-X100, and stained with Alexa Fluor 488-phalloidin (Invitrogen, Carlsbad, Calif., USA) to detect actin and cells were mounted in Prolong Antifade containing DAPI (Invitrogen) to stain nuclei. The cells were imaged on a LSM510 confocal microscope (Carl Zeiss Inc., Jena, Germany). For phospho-myosin light chain 2 (MLC) detection, cells were seeded to coverslips as described above. Cells were serum starved in 0.5% FBS and SA or DMSO vehicle control for 18 hours, and then pulsed with 10 ng/mL EGF (Invitrogen) for 5 min. […] Actin structures were monitored continuously over a 16 hr period using confocal microscopy equipped with a growth chamber (37° C., humidified atmosphere and 5% CO2). […]
# [4] = system: NF1-GRD expressing KR158 clones; test: Cell morphology / actin confocal microscopy, NF1-GRD KR158; format: cell-based, mouse
# Protocol: (§4) Constructs and Transfections: NF1-GRD retroviral constructs were obtained from Indiana University. Cells transduced with the NF1-GRD construct or PMSCV empty vector control as previously described (Hiatt et al., J. Biol. Chem., 2001, 276:7240-5) were maintained in 1 μg/mL puromycin (Sigma).
# as §3, with “above.” for “above. Cells were serum starved in 0.5% FBS and SA or DMSO vehicle control for 18 hours, and then pulsed with 10 ng/mL EGF (Invitrogen) for 5 min.”
# [5] = system: empty vector transduced KR158 cells; test: Cell morphology / actin confocal microscopy, empty vector KR158; format: cell-based, mouse
# Protocol: as §4
# as §3, with “above.” for “above. Cells were serum starved in 0.5% FBS and SA or DMSO vehicle control for 18 hours, and then pulsed with 10 ng/mL EGF (Invitrogen) for 5 min.”
# [6] = system: MPNST cell lines derived from the NPcis mouse; test: Cell morphology / actin, MPNST cell lines; format: cell-based
# Protocol: as §3
# [7] = system: MLC phosphorylation; test: Phospho-myosin light chain immunostaining, MPNST cell lines; format: cell-based, mouse
# Protocol: as §3
structure (smiles),measurement,setting,value
"CC(C)=CCC/C(C)=C/Cc1c(O)cc(/C=C/c2cc(O)c3c(c2)C[C@@H]2C(C)(C)[C@H](O)[C@H](O)C[C@@]2(C)O3)cc1O [SA, Schweinfurthin A]",inhibition of proliferation (percent viability versus control),[1],potent inhibition of cell proliferation; also recorded: sensitive
same,inhibition of proliferation,[2],much weaker inhibition of proliferation; also recorded: are not
same,"actin organization, phalloidin staining",[3],no visible changes in actin organization
same,actin structures,[4],did not change
same,F-actin structures,[5],same reorganization of F-actin structures
same,actin cytoskeleton,[6],loss of stress fibers
same,MLC phosphorylation,[7],reduced MLC phosphorylation
